{"source": "the supplement of paper PMC10307832", "test_in_all_cases": "relative viability (nuclei count vs DMSO), 5 days (fraction); higher = more cells survive", "key": {"IMD-0354 + Olaparib": {"compound": "O=C(Nc1cc(C(F)(F)F)cc(C(F)(F)F)c1)c1cc(Cl)ccc1O [IMD-0354] + O=C(c1cc(Cc2n[nH]c(=O)c3ccccc23)ccc1F)N1CCN(C(=O)C2CC2)CC1 [Olaparib] (partner 8 µM)", "procedure,_shortened": "(§1)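 Five library-drug doses in √10 steps were combined with a fixed anchor-drug dose, or a single drug was given alone, by pin tool to lung cancer cell lines in 1536-well plates the day after seeding. Nuclei were stained and counted after 5 days. Relative viability is the nuclei count in treated wells over that in vehicle wells, taken as the median of duplicate plates.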"}, "CX-5461 + Tozasertib": {"compound": "Cc1cnc(CNC(=O)c2c(=O)c3ccc(N4CCCN(C)CC4)nc3n3c2sc2ccccc23)cn1 [CX-5461] + Cc1cc(Nc2cc(N3CCN(C)CC3)nc(Sc3ccc(NC(=O)C4CC4)cc3)n2)n[nH]1 [Tozasertib] (partner 0.1 µM)", "procedure,_shortened": "as §1"}, "IMD-0354 + Palbociclib": {"compound": "O=C(Nc1cc(C(F)(F)F)cc(C(F)(F)F)c1)c1cc(Cl)ccc1O [IMD-0354] + CC(=O)c1c(C)c2cnc(Nc3ccc(N4CCNCC4)cn3)nc2n(C2CCCC2)c1=O [Palbociclib] (partner 0.5 µM)", "procedure,_shortened": "as §1"}, "IMD-0354 + Lapatinib": {"compound": "O=C(Nc1cc(C(F)(F)F)cc(C(F)(F)F)c1)c1cc(Cl)ccc1O [IMD-0354] + CS(=O)(=O)CCNCc1ccc(-c2ccc3ncnc(Nc4ccc(OCc5cccc(F)c5)c(Cl)c4)c3c2)o1 [Lapatinib] (partner 2 µM)", "procedure,_shortened": "as §1"}}}
{"cell line": "UMC-11", "values": [{"measurement": "relative viability", "setting": "IMD-0354 + Olaparib; first compound 0.04 µM", "value": 0.368}, {"measurement": "relative viability", "setting": "IMD-0354 + Olaparib; first compound 0.1265 µM", "value": 0.332}, {"measurement": "relative viability", "setting": "IMD-0354 + Olaparib; first compound 0.4 µM", "value": 0.278}, {"measurement": "relative viability", "setting": "IMD-0354 + Olaparib; first compound 1.265 µM", "value": 0.182}, {"measurement": "relative viability", "setting": "IMD-0354 + Olaparib; first compound 4 µM", "value": 0.178}, {"measurement": "relative viability", "setting": "CX-5461 + Tozasertib; first compound 0.01 µM", "value": 0.189}, {"measurement": "relative viability", "setting": "CX-5461 + Tozasertib; first compound 0.03162 µM", "value": 0.201}, {"measurement": "relative viability", "setting": "CX-5461 + Tozasertib; first compound 0.1 µM", "value": 0.204}, {"measurement": "relative viability", "setting": "CX-5461 + Tozasertib; first compound 0.3162 µM", "value": 0.198}, {"measurement": "relative viability", "setting": "CX-5461 + Tozasertib; first compound 1 µM", "value": 0.243}, {"measurement": "relative viability", "setting": "IMD-0354 + Palbociclib; first compound 0.04 µM", "value": 0.344}, {"measurement": "relative viability", "setting": "IMD-0354 + Palbociclib; first compound 0.1265 µM", "value": 0.303}, {"measurement": "relative viability", "setting": "IMD-0354 + Palbociclib; first compound 0.4 µM", "value": 0.323}, {"measurement": "relative viability", "setting": "IMD-0354 + Palbociclib; first compound 1.265 µM", "value": 0.215}, {"measurement": "relative viability", "setting": "IMD-0354 + Palbociclib; first compound 4 µM", "value": 0.18}, {"measurement": "relative viability", "setting": "IMD-0354 + Lapatinib; first compound 0.04 µM", "value": 1.07}, {"measurement": "relative viability", "setting": "IMD-0354 + Lapatinib; first compound 0.1265 µM", "value": 0.939}, {"measurement": "relative viability", "setting": "IMD-0354 + Lapatinib; first compound 0.4 µM", "value": 0.622}, {"measurement": "relative viability", "setting": "IMD-0354 + Lapatinib; first compound 1.265 µM", "value": 0.239}, {"measurement": "relative viability", "setting": "IMD-0354 + Lapatinib; first compound 4 µM", "value": 0.232}]}
